The values below come from US9439875B2, “Anxiolytic effect of pterostilbene” (The United States of America, as represented by The …, priority 2011, dated 2016).

One data set concerns Swiss Webster mice. Briefly: Spontaneous motor (locomotor) activity. It counts as in vivo, mouse. The method, then:
To measure spontaneous motor activity, adult Swiss Webster mice (n=8-10/group) were administered with pterostilbene by oral gavage. Each mouse was then placed in the locomotor chamber and acclimated in the Plexiglas enclosure for 30 min. After the 30 min acclimation period, locomotor activity was measured for 30 min using an automated activity monitoring system (San Diego Instruments, CA, USA). Total activity was expressed as the total number of interruptions of 16 cell photobeams per chamber.

Data set [1] is described as follows: Hippocampus level of pterostilbene by GC-MS. To be noted: for Pterostilbene level in the hippocampus (± SD): mouse. It counts as in vivo, mouse. On the procedure:
(§1) After the EPM session, blood samples were taken from each mouse by submandibular vein puncture in heparinized blood collection vials. Mice were then sacrificed and brains quickly removed. Their prefrontal cortex (PFC) and hippocampus were dissected out on ice, and immediately frozen in liquid nitrogen and stored at −80° C. until further processing. Blood samples were centrifuged at 2000 rpm at 4° C. for 20 min to get the plasma as supernatant. The plasma samples were stored at −80° C. until used.
Hippocampus tissues were kept at −80° C. until time of extraction. Hippocampus (left and right) from 2-3 animals was combined in an Eppendorf tube, and processed as one sample. To the tube was added 200 μL phosphate buffer (0.2M NaH2PO4:0.2M Na2HPO4, and the tissues were homogenized manually for 2 minutes. To 100 μl aliquot, 50 μL β-glucuronidase (5000 U/mL potassium phosphate buffer) was added. The mixture was vortex-mixed, and incubated (37° C., 20 hours) while shaking (750 rpm). The samples were then centrifuged (15 min, 7000 g, 4° C.). The supernatant was collected and partitioned with ethyl acetate (200 μL, twice). The ethyl acetate layers were combined, dried under a stream of nitrogen, and used for GC-MS analysis. Extraction of the prefrontal cortex (PFC) was performed in the same manner as the hippocampus; PFC tissues from three animals were combined and treated as one sample.
(§2) The nitrogen-dried samples (plasma and brain tissue extracts) were treated with 30 μL of a 1:1 mixture of N,O-bis[trimethylsilyl]trifluoroacetamide and dimethylformamide (Pierce Biotechnology, Inc., Rockford, Ill.) and heated at 70° C. for 40 min. The derivatized samples were analyzed for levels of pterostilbene using a JEOL GCMate II Instrument (JEOL USA Inc., Peabody, Mass.) equipped with a J&W DB-5 capillary column (0.25 mm internal diameter, 0.25 μm film thickness, and 30 m length; Agilent Technologies, Foster City, Calif.). […] The carrier gas was ultrahigh purity helium, at 1 mL/min flow rate. The injection port, GC-MS interface, and ionization chamber were kept at 250, 230, and 230° C., respectively. The volume of injection was 2 μL (splitless injection). The mass spectrum was acquired in the positive, selected ion-monitoring mode (m/z 328, 313, and 297); electron impact 70 eV. GC-MS analyses were in duplicates. The retention time of pterostilbene was 10.2 min. Quantitation of pterostilbene was done using an external standard of a synthetic sample of pterostilbene previously characterized for structure and purity.

Data set [2] is described as follows: Plasma level of pterostilbene by GC-MS. The conditions noted are these: mouse, after EPM session; for concentration at 65 min: Swiss Webster, plasma, oral, read-out: Pterostilbene level in the plasma (± SD). Format: in vivo. On the procedure:
as §1
Plasma were kept at −80° C., and thawed on ice prior to extraction. Plasma were treated with β-glucuronidase, to hydrolyze any glucuronidated pterostilbene, following published procedures (Remsberg et al., supra). Briefly, 50 μL plasma (from each animal) was transferred to an Eppendorf tube, and 60 μL of β-glucuronidase solution (5000 U/mL potassium phosphate buffer, 75 mM, pH 6.8 at 37° C.) was added. The mixture was vortex-mixed then incubated at 37° C. while shaking at 750 rpm for 20 hrs. Thereafter, ice-cold HPLC grade acetonitrile was added, vortex-mixed, and centrifuged for 5 min at 5000 rpm, 4° C. The supernatant was collected, and dried under a stream of nitrogen. The dried supernatant was used for GC-MS analysis.
as §2

Data set [3] can be described thus: Prefrontal cortex level of pterostilbene by GC-MS. Format: in vivo, mouse. The conditions noted are these: all the doses administered (1-10 mg/kg p.o.). On the procedure:
as §1
Hippocampus tissues were kept at −80° C. until time of extraction. Hippocampus (left and right) from 2-3 animals was combined in an Eppendorf tube, and processed as one sample. […]
The nitrogen-dried samples (plasma and brain tissue extracts) were treated with 30 μL of a 1:1 mixture of N,O-bis[trimethylsilyl]trifluoroacetamide and dimethylformamide (Pierce Biotechnology, Inc., Rockford, Ill.) and heated at 70° C. for 40 min. The derivatized samples were analyzed for levels of pterostilbene using a JEOL GCMate II Instrument (JEOL USA Inc., Peabody, Mass.) equipped with a J&W DB-5 capillary column (0.25 mm internal diameter, 0.25 μm film thickness, and 30 m length; Agilent Technologies, Foster City, Calif.). […] Quantitation of pterostilbene was done using an external standard of a synthetic sample of pterostilbene previously characterized for structure and purity.

The conditions of data set [4]: in vivo; cited from earlier work.

“And” between values parts separate entries of the source, which are not always exact repeats. Equal values may be shown once. “Also recorded” adds a separate entry of the source. Read-outs that look alike come from different tables or passages of the source.

For `COc1cc(/C=C/c2ccc(O)cc2)cc(OC)c1` [pterostilbene], the “locomotor activity (total number of photobeam interruptions per chamber)” value with Swiss Webster mice (1-10 mg/kg by oral gavage, one-way ANOVA) is “no stimulant or depressive actions; also recorded: no significant effect”. In the data set with Swiss Webster mice (higher doses), the “sedating tendency in EPM and locomotor activity monitoring chambers” value is “did not show any sedating tendency”. Besides, the locomotor activity entry in the data set with Swiss Webster mice (highest dose (10 mg/kg)) is reported as “didn't have any effect”. Moreover, in the data set with Swiss Webster mice (maximal anxiolytic dose (2 mg/kg), post hoc comparison), the spontaneous motor activity entry is “not affected”. In addition, the “Pterostilbene level in the hippocampus (± SD)” value was 0.2627 ± 0.0230 ng/hippocampus in data set [1] (2 mg/kg BW p.o.); 0.5314 ± 0.1830 ng/hippocampus in data set [1] (5 mg/kg BW p.o.); 1.1217 ng/hippocampus and 1.1217 ± 0.1322 ng/hippocampus in data set [1] (10 mg/kg BW p.o.). Moreover, the “Pterostilbene level in the hippocampus” value in data set [1] (range over 2, 5 and 10 mg/kg doses) is given as 0.2627-1.1217 ng/hippocampus. Further, the “Pterostilbene level in the plasma (± SD)” value in data set [2] (1 mg/kg BW p.o.) is listed as 10.0887 ± 6.6699 ng/mL; in data set [2] (10 mg/kg BW p.o.) it was 130.2651 ± 40.2558 ng/mL. In addition, the concentration at 65 min in data set [2] (1 mg/kg BW, 1 mg/kg BW p.o.) came out at 10.1 ± 6.67 ng/mL; in data set [2] (2 mg/kg BW, 2 mg/kg BW p.o.), 27 ± 7.27 ng/mL; in data set [2] (5 mg/kg BW, 5 mg/kg BW p.o.), 72 ± 19 ng/mL; in data set [2] (10 mg/kg BW, 10 mg/kg BW p.o.), 130 ± 40.2 ng/mL. The “Pterostilbene level in the pre-frontal cortex tissues” value in data set [3] was “trace levels”. Also, in data set [4], the half-life entry is given as “approximately 2 hr”.
